# Experimental data taken from PubChem BioAssay (NCI).
#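 The compound was tested at five concentrations on cells cultured in 96-well plates, with a 48-hour exposure period. GI50 marks 50% less growth. TGI marks complete inhibition of growth.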
# Columns and labels:
# Test in all cases: NCI-60 cell line screen, 48 h
# [1] = test system: HOP-18 NSCLC
# [2] = test system: SF-268 CNS
# [3] = test system: CCRF-CEM leukemia
# [4] = test system: SF-295 CNS
# [5] = test system: SF-539 CNS
# [6] = test system: HCT-15 colon
# [7] = test system: K-562 leukemia
# [8] = test system: A549 NSCLC
# [9] = test system: CAKI-1 renal
# [10] = test system: UO-31 renal
# [11] = test system: NCI-H460 lung
# [12] = test system: OVCAR-3 ovarian
# [13] = test system: EKVX NSCLC
# [14] = test system: COLO 205 colon
# [15] = test system: OVCAR-4 ovarian
# [16] = test system: HCT-116 colon
# [17] = test system: KM20L2 colon
# [18] = test system: SK-MEL-28 melanoma
# [19] = test system: DMS 114 small cell lung
# [20] = test system: A498 renal
# [21] = test system: MALME-3M melanoma
# [22] = test system: OVCAR-8 ovarian
# [23] = test system: LXFL 529 NSCLC
# [24] = test system: TK-10 renal
# [25] = test system: ACHN renal
# [26] = test system: NCI-H522 lung
# [27] = test system: HT29 colon
# [28] = test system: DLD-1 colon
# [29] = test system: RXF 393 renal
# [30] = test system: NCI-H226 lung
# [31] = test system: NCI-H23 lung
# [32] = test system: SK-MEL-5 melanoma
# [33] = test system: SK-OV-3 ovarian
# [34] = test system: XF 498 CNS
# [35] = test system: RPMI-8226 leukemia
# [36] = test system: IGROV1 ovarian
# [37] = test system: UACC-62 melanoma
# [38] = test system: U251 CNS
# [39] = test system: SN12C renal
# [40] = test system: SNB-75 CNS
# [41] = test system: SW-620 colon
# [42] = test system: SK-MEL-2 melanoma
# [43] = test system: 786-0 renal
# [44] = test system: UACC-257 melanoma
# [45] = test system: HCC-2998 colon
# [46] = test system: HOP-62 NSCLC
# [47] = test system: MOLT-4 leukemia
# [48] = test system: M19-MEL melanoma
# [49] = test system: M14 melanoma
# [50] = test system: KM12 colon
# [51] = test system: SNB-19 CNS
# [52] = test system: RXF-631 renal
# [53] = test system: LOX IMVI melanoma
# [54] = test system: SNB-78 CNS
# [55] = test system: OVCAR-5 ovarian
# [56] = test system: SR leukemia
# [57] = test system: HL-60(TB) leukemia
# [58] = test system: DMS 273 small cell lung
# [59] = test system: HOP-92 NSCLC
compound,measurement,setting,value
COc1ccc(/C=C/C(=O)c2sc(-n3nc(-c4ccccc4)cc3-c3ccccc3)nc2C)cc1,GI50,[1],> 100 µM
same,TGI,[1],> 100 µM
same,GI50,[2],> 100 µM
same,TGI,[2],> 100 µM
same,GI50,[3],> 100 µM
same,TGI,[3],> 100 µM
same,GI50,[4],> 100 µM
same,TGI,[4],> 100 µM
same,GI50,[5],> 100 µM
same,TGI,[5],> 100 µM
same,TGI,[6],> 100 µM
same,TGI,[7],> 100 µM
same,GI50,[8],> 100 µM
same,TGI,[8],> 100 µM
same,TGI,[9],> 100 µM
same,TGI,[10],> 100 µM
same,GI50,[11],> 100 µM
same,TGI,[11],> 100 µM
same,TGI,[12],> 100 µM
same,GI50,[13],51.1 µM
same,TGI,[13],> 100 µM
same,GI50,[14],> 100 µM
same,TGI,[14],> 100 µM
same,TGI,[15],> 100 µM
same,GI50,[16],> 100 µM
same,TGI,[16],> 100 µM
same,TGI,[17],> 100 µM
same,GI50,[18],> 100 µM
same,TGI,[18],> 100 µM
same,TGI,[19],> 100 µM
same,GI50,[20],> 100 µM
same,TGI,[20],> 100 µM
same,GI50,[21],> 100 µM
same,TGI,[21],> 100 µM
same,GI50,[22],> 100 µM
same,TGI,[22],> 100 µM
same,GI50,[23],> 100 µM
same,TGI,[23],> 100 µM
same,GI50,[24],> 100 µM
same,TGI,[24],> 100 µM
same,GI50,[25],> 100 µM
same,TGI,[25],> 100 µM
same,TGI,[26],> 100 µM
same,TGI,[27],> 100 µM
same,GI50,[28],> 100 µM
same,TGI,[28],> 100 µM
same,GI50,[29],> 100 µM
same,TGI,[29],> 100 µM
same,GI50,[30],> 100 µM
same,TGI,[30],> 100 µM
same,GI50,[31],> 100 µM
same,TGI,[31],> 100 µM
same,TGI,[32],> 100 µM
same,GI50,[33],> 100 µM
same,TGI,[33],> 100 µM
same,TGI,[34],> 100 µM
same,TGI,[35],> 100 µM
same,GI50,[36],> 100 µM
same,TGI,[36],> 100 µM
same,GI50,[37],> 100 µM
same,TGI,[37],> 100 µM
same,TGI,[38],> 100 µM
same,TGI,[39],> 100 µM
same,GI50,[40],56.1 µM
same,TGI,[40],> 100 µM
same,GI50,[41],> 100 µM
same,TGI,[41],> 100 µM
same,GI50,[42],> 100 µM
same,TGI,[42],> 100 µM
same,GI50,[43],> 100 µM
same,TGI,[43],> 100 µM
same,TGI,[44],> 100 µM
same,GI50,[45],> 100 µM
same,TGI,[45],> 100 µM
same,GI50,[46],> 100 µM
same,TGI,[46],> 100 µM
same,TGI,[47],> 100 µM
same,GI50,[48],> 100 µM
same,TGI,[48],> 100 µM
same,GI50,[49],> 100 µM
same,TGI,[49],> 100 µM
same,TGI,[50],> 100 µM
same,GI50,[51],> 100 µM
same,TGI,[51],> 100 µM
same,GI50,[52],> 100 µM
same,TGI,[52],> 100 µM
same,GI50,[53],> 100 µM
same,TGI,[53],> 100 µM
O=C(Nc1nc2c(ncn2C2OC(CO)C(O)C2O)c(=O)[nH]1)c1ccccc1 (stereo unspecified),TGI,[1],> 100 µM
same,TGI,[2],> 100 µM
same,TGI,[3],> 100 µM
same,TGI,[4],> 100 µM
same,TGI,[5],> 100 µM
same,TGI,[6],> 100 µM
same,TGI,[7],> 100 µM
same,TGI,[8],> 100 µM
same,TGI,[9],> 100 µM
same,TGI,[10],> 100 µM
same,TGI,[11],> 100 µM
same,TGI,[12],> 100 µM
same,TGI,[54],> 100 µM
same,TGI,[13],> 100 µM
same,TGI,[14],> 100 µM
same,TGI,[15],> 100 µM
same,TGI,[16],> 100 µM
same,TGI,[17],> 100 µM
same,TGI,[18],> 100 µM
same,TGI,[55],> 100 µM
same,TGI,[20],> 100 µM
same,TGI,[21],> 100 µM
same,TGI,[22],> 100 µM
same,TGI,[56],> 100 µM
same,TGI,[23],> 100 µM
same,TGI,[24],> 100 µM
same,TGI,[57],> 100 µM
same,TGI,[25],> 100 µM
same,TGI,[26],> 100 µM
same,TGI,[27],> 100 µM
same,TGI,[28],> 100 µM
same,TGI,[29],> 100 µM
same,TGI,[30],> 100 µM
same,TGI,[31],> 100 µM
same,TGI,[32],> 100 µM
same,TGI,[33],> 100 µM
same,TGI,[34],> 100 µM
same,TGI,[35],> 100 µM
same,TGI,[36],> 100 µM
same,TGI,[37],> 100 µM
same,TGI,[58],> 100 µM
same,TGI,[38],> 100 µM
same,TGI,[39],> 100 µM
same,TGI,[40],> 100 µM
same,TGI,[41],> 100 µM
same,TGI,[42],> 100 µM
same,TGI,[43],> 100 µM
same,TGI,[44],> 100 µM
same,TGI,[46],> 100 µM
same,TGI,[59],> 100 µM
same,TGI,[48],> 100 µM
same,TGI,[49],> 100 µM
same,TGI,[50],> 100 µM
same,TGI,[52],> 100 µM
same,TGI,[53],> 100 µM
Brc1ccc2ns[s+]c2c1,TGI,[1],> 100 µM
same,TGI,[2],> 100 µM
same,TGI,[3],> 100 µM
same,TGI,[4],> 100 µM
same,TGI,[5],65.3 µM
same,TGI,[6],> 100 µM
same,TGI,[7],> 100 µM
same,TGI,[8],> 100 µM
same,TGI,[9],> 100 µM
same,TGI,[10],> 30.7 µM
same,TGI,[11],> 100 µM
same,TGI,[12],> 100 µM
same,TGI,[54],> 31.6 µM
same,TGI,[13],> 100 µM
same,TGI,[14],> 41.9 µM
same,TGI,[15],> 100 µM
same,TGI,[16],> 100 µM
same,TGI,[17],> 100 µM
same,TGI,[18],> 100 µM
same,TGI,[55],> 100 µM
same,TGI,[19],> 100 µM
same,TGI,[20],> 100 µM
same,TGI,[21],> 86 µM
same,TGI,[22],> 100 µM
same,TGI,[56],> 100 µM
same,TGI,[23],> 100 µM
same,TGI,[24],> 100 µM
same,TGI,[57],> 100 µM
same,TGI,[25],> 100 µM
same,TGI,[26],> 100 µM
same,TGI,[27],> 100 µM
same,TGI,[29],> 100 µM
same,TGI,[30],> 100 µM
same,TGI,[31],> 100 µM
same,TGI,[32],> 46.7 µM
same,TGI,[33],> 100 µM
same,TGI,[34],> 100 µM
same,TGI,[35],> 100 µM
same,TGI,[36],> 100 µM
same,TGI,[37],> 20.5 µM
same,TGI,[58],> 100 µM
same,TGI,[38],> 31.6 µM
same,TGI,[39],> 100 µM
same,TGI,[40],> 100 µM
same,TGI,[41],> 100 µM
same,TGI,[42],> 100 µM
same,TGI,[43],> 100 µM
same,TGI,[44],> 100 µM
same,TGI,[45],25.8 µM
same,TGI,[46],> 31.6 µM
same,TGI,[59],95 µM
same,TGI,[47],> 100 µM
same,TGI,[48],> 100 µM
same,TGI,[49],5.88 µM
same,TGI,[50],> 100 µM
same,TGI,[51],> 100 µM
same,TGI,[52],> 100 µM
same,TGI,[53],> 100 µM
